Experimental data published in patent US20260284150A1, “TOPICAL PROTEIN BASED FORMULATION” (OPTIMUS SALVUS LIMITED, priority 2023, published 2026).

Key:
[1] = CBD dosage optimisation and cell toxicity assay (WST-1); type: cell-based; conditions: human; HDF cells, 24 hours incubation, WST-1 reagent, CBD up to 25 μg/mL; read-out: CBD concentrations toxic to human fibroblast cells
Procedure: The following reagents were purchased from ThermoFisher: Human Fibroblast Expansion Basal Medium, Low Serum Growth Supplement (LSGS), EpiLife™ Medium with 60 μM calcium, Human Keratinocyte Growth Supplement (HKGS), Trypsin-EDTA (0.05%), phenol red. Fetal Bovine Serum (French Origin) was purchased from Scientifix. Human skin cells: Fibroblasts (HDF) and Keratinocyte (HEK) cells were purchased from Sigma Aldrich and ThermoFisher respectively. HDF cells were grown in Fibroblast media supplemented with 1×LSGS, while HEK cells were grown in Keratinocyte media supplemented with 1×HKGS. Both cell lines were kept in an incubator at 37° C., with 5% CO2.
The human skin cells (HDF and HEK) were cultured in respective media and were grown in T25 flasks until ~70-80% confluent. Once confluent, the cells were washed with 1×PBS and split using 0.05% Trypsin-EDTA solution. The cell pellet was collected and split into a fresh T25 flask and T75 flask containing full growth media at a dilution factor of 1:4 and incubated at 37° C., 5% CO2. Cells were >85-92% viable based on Trypan blue exclusion when seeding and passing. […]

[2] = HEDS (2-hydroxyethyl disulphide) enzyme assay, NADPH consumption at A340 nm; type: biochemical; conditions: coupled with glutathione (GSH) and glutathione reductase (GR); versus buffer control without CLIC
Procedure: The functional activity of the purified CLIC1, CLIC3 and CLIC4 proteins were analysed using the HEDS assay. The assay measures the ability of the CLIC proteins to reduce the HEDS substrate when coupled with glutathione (GSH) and glutathione reductase (GR) resulting in the consumption of NADPH that is monitored at A340 nm.

Row | Compound | MCC at 24 h [1] [µg/mL] | enzymatic activity: reduction of HEDS substrate, decrease in absorbance at 340 nm (consumption of NADPH) [2]
1 | C=C(C)[C@@H]1CCC(C)=C[C@H]1c1c(O)cc(CCCCC)cc1O [CBD, cannabidiol] | > 4 | –
2 | CLIC4: purified recombinant human chloride intracellular channel protein 4, expressed in E. coli, GST tag cleaved | – | significant enzymatic activity
